Experimental data taken from article PMC9740829, “Salvianolic Acid B Strikes Back: New Evidence in the Modulation of Expression and Activity of Matrix Metalloproteinase 9 in MDA-MB-231 Human Breast Cancer Cells” (Molecules, 2022).

Target: T1, matrix metalloproteinase 9 (MMP-9) (Homo sapiens, UniProt P14780)
T1 construct: gene MMP9; recombinant catalytic domain of MMP-9 (CDMMP-9), 39 kDa, aa 107–457 + NT His Tag
Experiment: fluorometric inhibition assay with self-quenched peptide substrate; double reciprocal and secondary plots
Assay type: biochemical
Text: fluorometric inhibition assay with self-quenched peptide substrate; double reciprocal and secondary plots on matrix metalloproteinase 9 (MMP-9) | competitive inhibition of the activity performed by the MMP-9 catalytic domain (CDMMP-9) (Figure 3A), and allowed to define a Ki

T1 sequence (P14780 107-457): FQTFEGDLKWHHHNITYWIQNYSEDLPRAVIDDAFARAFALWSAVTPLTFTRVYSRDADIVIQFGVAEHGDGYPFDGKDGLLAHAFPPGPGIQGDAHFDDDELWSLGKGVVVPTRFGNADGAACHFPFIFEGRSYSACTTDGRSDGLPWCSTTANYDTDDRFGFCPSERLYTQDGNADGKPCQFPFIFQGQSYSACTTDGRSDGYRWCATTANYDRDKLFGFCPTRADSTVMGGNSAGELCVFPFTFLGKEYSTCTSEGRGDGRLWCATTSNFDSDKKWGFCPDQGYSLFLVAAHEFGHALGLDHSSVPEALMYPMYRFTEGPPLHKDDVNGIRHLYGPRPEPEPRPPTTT

A Ki of 57.4 ± 3.96 µM was found for `O=C(/C=C/c1ccc(O)c2c1[C@H](C(=O)O[C@H](Cc1ccc(O)c(O)c1)C(=O)O)[C@@H](c1ccc(O)c(O)c1)O2)O[C@H](Cc1ccc(O)c(O)c1)C(=O)O` [SalB, Salvianolic acid B] in this work.
